The test relates to OCI-Ly10 cells. The test is described as follows: Combined effect of BTK inhibitor and BCL-2 inhibitor by BLISS score, OCI-Ly10. In kind it is cell-based, Human. Conditions: combination with venetoclax, 8×8 matrix, positive = synergistic. The procedure:
The BLISS score is one of the criteria used to evaluate synergistic effects in combination of agents (Borisy et al. Proc. Natl. Acad. Sci. USA., 100(13): 7977-7982 (2003); Griner et al. Proc. Natl. Acad. Sci. USA., 111(6): 2349-54 (2014)). This BLISS score was used to analyze the combined effect of a BTK inhibitor and a BCL-2 inhibitor in terms of proliferation inhibition to OCI-Ly10 cells.
After 96 hours of culture, an Alamar Blue reagent was added, and 3 hours later, fluorescence of excitation wavelength 560 nm/fluorescence wavelength 590 nm was measured. Cell proliferation inhibition rate and viability (100−inhibition rate %) were determined by setting a compound-free and cell-free well as 100% and a compound-free and cell-containing well as 0%.
Theoretical BLISS independence (BLISSin) for each well can be calculated from the following formula when agent A and agent B each are thought to have acted as a single agent (i.e., cell proliferation rate when the concentration of either one compound is 0). G is cell viability.
BLISS score for each well can be derived from a difference between the theoretical BLISSin and a measured value of cell proliferation rate. If the BLISS score is a positive number, it is considered that a synergistic effect is present.
BLISS score=100×(BLISSin−G)

Molecules are shown by their SMILES.

In the case of `Nc1nc(-c2cccc(-n3ccc4cc(C5CC5)cc(F)c4c3=O)c2CO)c2cc(C3=CCN(C4COC4)CC3)[nH]c2n1` [Compound (I-A), 2-(3-{2-amino-6-[1-(oxetan-3-yl)-1,2,3,6-tetrahydropyridin-4-yl]-7H-pyrrolo[2,3-d]pyrimidin-4-yl}-2-(hydroxymethyl)phenyl)-6-cyclopropyl-8-fluoroisoquinolin-1(2H)-one], the BLISS score result is on record as “positive values”.
